From PMC11042424, “Development of a First-in-Class RIPK1 Degrader to Enhance Antitumor Immunity” (Research Square, 2024) come the findings set out here.

The structures appear in SMILES notation. Read-outs that look alike come from different tables or passages of the source.

Data set [1] is described as follows: Stability in human liver S9 fractions. The class given is in vitro ADME.
Data set [2] can be described thus: Pharmacokinetics in C57BL/6J mice. The class given is in vivo. Particulars: mouse, plasma. The procedure:
Next, we evaluated the pharmacokinetics (PK) of LD4172 in C57BL/6J (B6) mice (Fig. 4A).
(§1) Figure 4 LD4172 synergizes with Anti-PD1 to inhibit tumor growth. A, Plasma concentrations of LD4172 in C57BL/6J mice administered 1 mg/kg intravenously (i.v.) or 10 mg/kg intraperitoneally (i.p.) (n=4). B, Representative immunoblots of RIPK1 in different tissues of C57BL/6J mice treated with LD4172 (n=3–4). C, Densitometric analysis of RIPK1 protein levels in different tissues (n=3 or 4). D, Representative immunoblots of RIPK1 levels of B16F10 cells transduced with gRNA specific for RIPK1 or non-targetable control (sgNC). E, B16F10-RIPK1-KO tumors sensitized to anti-PD1 treatment: 3×10^5 B16F10 cells transduced with gRNA specific for RIPK1 or non-targetable control (sgNC) were inoculated into C57BL/6J mice. After seven days, mice with measurable tumors (~100 mm3) were randomly treated with or without anti-PD1 in vivo (100 μg per dose, i.p., every three days, n=8). F, Tumor growth curve of mice with B16F10 tumors treated with LD4172 and/or anti-PD1 (n=8). C57B6/J mice were subcutaneously inoculated with 3×10^5 B16F10 tumor cells. After seven days (tumor size ~ 100 mm3), mice were treated every three days with anti- PD1 (100 μg per dose, i.p.), daily with LD4172 (20 mg/kg, i.p.), a combination of LD4172 and anti-PD1 (same dose as their individual doses), or their corresponding vehicle control. G, Kaplan-Meier survival curve for all experimental groups. H, Final tumor weight (g) from F after 22d of treatment (n=8). I, Representative images of B16F10 tumors collected at the end of treatment. J, Mouse body weight (n=8). K, Tumor growth curve of mice with B16F10 tumors treated with T2I and/or anti-PD1 (n=8). The experimental conditions and treatment regimens were the same as F except using the RIPK1 kinase inhibitor T2I (20 mg/kg, i.p.) to replace LD4172. Representative data from at least three independent experiments are shown. Data are expressed as the mean ± SEM. * p<0.05; ** p<0.01; *** p<0.001, **** p<0.0001, respectively. ns, indicates no statistical significance.

The target in another data set is hERG channel (Homo sapiens, UniProt Q12809). Briefly: hERG channel inhibition assay. Particulars: at 30 μM. (In general: Block of hERG is tested as a sign of cardiac risk.)
Sequence of hERG channel (Q12809 whole entry): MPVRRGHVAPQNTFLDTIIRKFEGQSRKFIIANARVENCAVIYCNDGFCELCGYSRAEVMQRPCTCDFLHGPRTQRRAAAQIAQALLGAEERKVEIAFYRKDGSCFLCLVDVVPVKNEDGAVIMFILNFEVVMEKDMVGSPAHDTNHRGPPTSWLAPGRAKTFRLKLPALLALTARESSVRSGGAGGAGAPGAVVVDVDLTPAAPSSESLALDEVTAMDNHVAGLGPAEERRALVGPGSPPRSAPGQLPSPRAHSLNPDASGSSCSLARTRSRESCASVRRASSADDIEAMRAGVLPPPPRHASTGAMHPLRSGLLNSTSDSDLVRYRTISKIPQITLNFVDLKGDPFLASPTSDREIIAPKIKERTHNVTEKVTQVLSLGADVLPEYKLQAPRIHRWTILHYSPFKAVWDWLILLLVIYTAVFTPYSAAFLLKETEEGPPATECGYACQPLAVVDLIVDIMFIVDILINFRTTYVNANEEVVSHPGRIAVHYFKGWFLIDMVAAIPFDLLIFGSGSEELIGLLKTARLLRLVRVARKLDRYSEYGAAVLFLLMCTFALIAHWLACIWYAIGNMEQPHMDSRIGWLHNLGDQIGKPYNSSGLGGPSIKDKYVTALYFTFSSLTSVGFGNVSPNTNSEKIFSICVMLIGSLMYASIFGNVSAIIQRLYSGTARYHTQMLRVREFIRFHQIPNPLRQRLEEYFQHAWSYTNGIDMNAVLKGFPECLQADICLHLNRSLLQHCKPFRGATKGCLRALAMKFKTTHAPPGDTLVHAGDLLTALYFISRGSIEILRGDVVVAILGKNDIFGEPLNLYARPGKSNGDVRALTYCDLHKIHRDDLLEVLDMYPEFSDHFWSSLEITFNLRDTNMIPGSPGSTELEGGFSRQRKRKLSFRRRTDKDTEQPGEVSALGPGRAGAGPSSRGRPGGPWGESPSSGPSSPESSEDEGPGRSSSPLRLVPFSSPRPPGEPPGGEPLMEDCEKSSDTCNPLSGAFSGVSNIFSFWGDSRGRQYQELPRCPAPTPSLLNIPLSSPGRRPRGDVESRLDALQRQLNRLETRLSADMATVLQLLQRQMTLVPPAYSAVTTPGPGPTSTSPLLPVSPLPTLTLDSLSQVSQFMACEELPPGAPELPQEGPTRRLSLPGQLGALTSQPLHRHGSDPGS
The next data set relates to B16F10 tumors. Put plainly: B16F10 syngeneic tumor model with anti-PD1. It is filed as in vivo. As to the method:
as §1
To establish a syngeneic mouse model, 3× 10^5 B16F10 cells resuspended in PBS were mixed 1:1 by volume with Matrigel (354262, Corning) and subcutaneously injected into the right flank of seven-week-old wild-type female C57BL/6J mice on day 0. Treatments were started on day 7 when the tumor volume reached approximately 100 mm^3. Antibodies were administered in 100μL volumes and injected intraperitoneally every three days for the following: anti-PD1 (100 μg, BE0146, BioXcell) and anti-CD8 (500 μg, BE0004, BioXcell). The RIPK1 degrader LD4172 and RIPK1 kinase inhibitor T2I were delivered in 200 μL of vehicle solution (30% PEG400, 5% Tween-80, 5% DMSO) once daily (20 mg/kg, i.p. injection). […] Tumors were measured every three days beginning on day 7 after the challenge until death. […]

A further data set deals with MC38 tumors. Briefly: Syngeneic MC38 colon cancer model with anti-PD1. The class given is in vivo.
A short description of another data set: Plasma protein binding. The class given is in vitro ADME. Particulars: read-out: bound to plasma proteins (converted).

One may read the bioavailability as dose-corrected exposure relative to a reference, in per cent. Broadly, the clearance is the rate of elimination divided by the concentration. By Vd is commonly meant the apparent volume that relates the amount in the body to the concentration in plasma or blood. `Cc1ncsc1-c1ccc([C@H](C)NC(=O)[C@@H]2C[C@@H](O)CN2C(=O)[C@@H](NC(=O)CCCCCCCCCCC(=O)NCCCn2cc(-c3ccc4c(c3)CCN4C(=O)Cc3cccc(OC(F)(F)F)c3)c3c(N)ncnc32)C(C)(C)C)cc1` [LD4172]: the half-life is 0.352 h in data set [1]; 1.5 h in data set [2] (ip, 10 mg/kg i.p., read-out: t1/2 (converted)); 3.3 ± 2.1 h in data set [2] (iv, 1 mg/kg i.v., read-out: half-life (t1/2) (converted)). In data set [1], the “intrinsic clearance (CLint)” value is 32.8 μL·min^− 1·mg^− 1 protein. Moreover, in data set [2] (intraperitoneal, i.p. 10 mg/kg vs i.v. 1 mg/kg), the bioavailability was 39%. The AUC in data set [2] (ip, 10 mg/kg i.p., read-out: AUC) is 2.7 µM·h; in data set [2] (iv, 1 mg/kg i.v., read-out: area under the concentration-time curve (AUC)), 0.7 ± 0.07 µM·h. Moreover, the Cmax in data set [2] (ip, 10 mg/kg i.p., read-out: Cmax) came out at 2.9 µM; in data set [2] (iv, 1 mg/kg i.v., read-out: maximum plasma concentration (Cmax)) it was 6.3 ± 0.8 µM. In addition, the clearance in data set [2] (iv, 1 mg/kg i.v.) turned out to be 19.8 ± 1.8 mL/min/kg. For the same compound, the Vd in data set [2] (iv, 1 mg/kg i.v., read-out: volume of distribution (Vd)) is 1.1 ± 0.2 L/kg. For the same compound, the “inhibition of hERG” value at hERG channel was “no obvious inhibition”. For the same compound, the “tumor response in combination with anti-PD1” value with B16F10 tumors (B16F10 tumors, 20 mg/kg i.p. daily plus anti-PD1 100 μg i.p. every three days) was “sensitized B16F10 tumors to anti-PD1 therapy”; in the data set with MC38 tumors it was “substantially sensitized MC38 tumors to anti-PD1 therapy”. The “tumor progression, single agent” value in the data set with B16F10 tumors (B16F10 tumors, LD4172 20 mg/kg i.p. daily, anti-PD1 100 μg i.p. every three days) was “tumor progression similar to that of the untreated mice”. Besides, the mouse body weight entry in the data set with B16F10 tumors (long-term administration) is on record as “no impact on mouse body weight”. For the same compound, the fraction unbound in the data set “Plasma protein binding” is 0.014.
